“Also recorded” adds a separate entry of the source. Where two headings read alike, the source gives them in different places. Where a SMILES comes first, the peptide text is derived from it. The star is where a group is joined. Cbz = O=C(OCc1ccccc1)*; CH2F = FC*
Key:
SW1271 cells [1] = assay: Scratch wound healing cell migration assay; type: cell-based; details: 100 µM, 24 h
Protocol: The same experiments were performed on wild type SW1271 cells treated with fluoromethylketone analogs. Molecules 1 and 34 were first assessed for their effect on cell viability at 100 µM to determine if any observed reduction in cell viability may influence the migration assays (Figure 9E). […] Due to the slow reactive nature of the inhibitor and the modest potency the anti-migratory efficacy of these analogs may be improved with longer duration of treatment or increasing the frequency of treatment. Further studies are underway to elucidate the role UCHL1 plays in the migratory cellular pathways using both genetic depletion and inhibitor approaches.
Wild-type or shRNA treated UCHL1 knockdown SW1271 cells were seeded in 12-well plates at 1 million cells/well. The cells were cultured overnight to grow as a confluent single layer. The cross-style wounds were created using pipet tips to scratch on the single layer of cells. The compounds were prepared in full growth media at the desired concentrations and added after the wounds were created. DMSO was used as the vehicle control. Photos of the wounds were captured immediately after adding treatments at 0 h. Photos of the wounds were captured at 0 and 24 h. The areas of cross-style wounds were quantified using Image J 1.52a software. The migration rate (%) was defined as the percentage of area at each timepoint compared to the one at 0 h.

UCHL1 [2] = biological target: T1, UCHL1 (Homo sapiens, UniProt P09936); assay: Fluorescence-based Ub-Rho deubiquitinase activity assay; type: biochemical; parameters: made in house; details: for IC50: 3 h of preincubation with UCHL1, technical triplicate, averages
T1 sequence (P09936 1-223): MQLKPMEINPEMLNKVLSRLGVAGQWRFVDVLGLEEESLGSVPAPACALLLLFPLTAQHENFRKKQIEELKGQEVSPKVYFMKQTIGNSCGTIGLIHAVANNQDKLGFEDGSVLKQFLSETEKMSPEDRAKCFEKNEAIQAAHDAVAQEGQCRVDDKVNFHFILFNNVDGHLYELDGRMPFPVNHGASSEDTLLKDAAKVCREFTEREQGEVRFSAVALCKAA
Protocol: Thus, a 3-h preincubation period was selected for the structure-activity relationship (SAR) comparison of all analogs to ensure full reaction time and for consistent comparison of activity against UCHL1 within the scaffold. […] A 10 mM stock solution was made for each inhibitor in DMSO, then a dilution of 600 µM in reaction buffer was made followed eight by 1:1 serial dilutions. […] These were allowed to incubate, while sealed, for the 3 h at room temperature. […] The % activity was plotted as a function of inhibitor concentration and the data was fitted with non-linear regression analysis to calculate the IC50 values. Errors are reported as the 95% confidence interval calculated from experiments collected in technical triplicate.

UCHL3 = biological target: T2, UCHL3 (Homo sapiens, UniProt P15374); assay: as above; type: biochemical; parameters: His (N); made in house; details: top concentration of 200 µM; Figure S1
T2 sequence (P15374 1-230): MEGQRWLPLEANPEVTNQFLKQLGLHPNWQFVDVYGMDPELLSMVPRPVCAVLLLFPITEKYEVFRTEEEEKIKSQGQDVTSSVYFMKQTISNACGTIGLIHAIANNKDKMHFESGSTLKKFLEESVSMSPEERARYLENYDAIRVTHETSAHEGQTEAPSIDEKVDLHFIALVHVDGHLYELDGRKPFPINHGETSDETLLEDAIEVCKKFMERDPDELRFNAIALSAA
Protocol: The in vitro inhibition of UCHL1 was determined by monitoring the cleavage of rhodamine 110 from substrate Rhodamine110-ubiquitin (Ub-Rho). […]. Thus, a 3-h preincubation period was selected for the structure-activity relationship (SAR) comparison of all analogs to ensure full reaction time and for consistent comparison of activity against UCHL1 within the scaffold. […]. The assay was performed in black 384-well plates (Catalog #12566624, Fisher, Waltham, MA, USA). DUB stock solutions were diluted in reaction buffer (50 mm Tris pH 7.6, 0.5 mm EDTA, 5 mm DTT, 0.1 % (w/v) BSA) to a concentration of 2.5 nM for UCHL1 or 0.025 nM for UCHL3. […] Plates were read immediately and fluorescence of cleaved Rhodamine 110 fluorophore was monitored at λex = 485 nm, λem = 535 nm continuously for 20 min on a Synergy Neo2 instrument (BioTek, Winooski, VT, USA) The raw data was loaded into GraphPad Prism 8 (GraphPad Software, San Diego, CA, USA; www.graphpad.com, accessed on 12 January 2021) and the slope of the linear portion of the fluorescence vs. time curves was calculation for each inhibitor concentration and % activity of the enzyme was determined compared to DMSO-treated controls. […] Errors are reported as the 95% confidence interval calculated from experiments collected in technical triplicate.

UCHL1 [3] = biological target: T1, UCHL1; assay: Time-dependent inhibitor analysis (kinact/KI); type: biochemical; parameters: made in house
Protocol: Irreversible covalent inhibitors may be further characterized by determining the reversible binding constant (KI) as well as the rate of the covalent bond formation under saturating conditions (kinact). By determining the IC50 over the course of various timepoints, the pseudo first-order rate constant (kobs) could be calculated. […] The % activity of each inhibitor concentration was the plotted vs. time of pre-incubation and the slope of this plot is the pseudo first-order rate constant (kobs) for inhibition at each concentration. The kobs was plotted as a function of inhibitor concentration and then fit to the equation Y = kinactX/(KI + X) to calculate kinact, KI and kinact/KI as described by Resnick et al..

SW1271 cells [4] = assay: SW1271 cell viability assay; type: cell-based; details: 100 µM, 24 h
Protocol: UCHL1 is a key promoter of cell invasion and metastasis in small cell lung cancer but not necessarily required for cell viability or proliferation. Thus, we chose to assess the efficacy of targeting UCHL1 using the SW1271 small cell lung cancer cell line. […] The Ub-ABP assay was used to confirm on target engagement of UCHL1 within these cells.
Luciferase-constructed cancer cells were seeded in 96-well plates at 10,000 cells/well with the compounds at the indicated concentrations. DMSO was used as vehicle control. Luminescence readings were acquired after adding 1% D-luciferin (GoldBio, St. Louis, MO, USA) after 24 h. Cell viability was determined by the ratio of luminescence reading compared to the one at 0 h, and normalized to vehicle control.

COC(=O)CC[C@H](NC(=O)[C@H](C)NC(=O)[C@@H](NC(=O)OCc1ccccc1)C(C)C)C(=O)CF [Cpd 1, benzyloxycarbonyl-Val-Ala-Glu(γ-methoxy)-fluoromethylketone] (Cbz-Val-Ala-Glu(OMe)-CH2F)
migration of SW1271 cells compared to DMSO control (SW1271 cells [1]): the same reduction of migratory ability was not observed
IC50 (UCHL1 [2]; IC50 (µM)): 24 µM
activity versus UCHL3 (UCHL3): no activity
Ki (UCHL1 [3]): 60 µM
SW1271 cell viability (SW1271 cells [4]): no effect on the cell viability; also recorded: neither 1 nor 34 displayed cytotoxic effect

C#Cc1ccc(COC(=O)N[C@H](C(=O)N[C@@H](C)C(=O)N[C@@H](CCC(=O)OC)C(=O)CF)C(C)C)cc1 [Cpd 34]
migration of SW1271 cells compared to DMSO control (SW1271 cells [1]): significantly reduced the ability of the cells to migrate; also recorded: anti-migratory properties
IC50 (UCHL1 [2]; read-out: IC50): 7.7 µM
fold more active than 1 versus UCHL1 (UCHL1 [2]; IC50 comparison, 3 h preincubation): approximately 3 fold
activity versus UCHL3 (UCHL3): no observable activity
improvement of KI compared with 1 (UCHL1 [3]): greater than 3 fold
kinact (UCHL1 [3]): 0.0136 s⁻¹
kinact/KI (UCHL1 [3]): 810 M⁻¹ s⁻¹
Ki (UCHL1 [3]; reversible binding constant of covalent inhibition, read-out: KI): 16.8 µM
SW1271 cell viability (SW1271 cells [4]): no effect on the cell viability; also recorded: did not reduce SW1271 cell viability; also recorded: neither 1 nor 34 displayed cytotoxic effect; also recorded: does not exhibit any cellular toxicity

Source: article PMC7956625, “Optimization and Anti-Cancer Properties of Fluoromethylketones as Covalent Inhibitors for Ubiquitin C-Terminal Hydrolase L1” (Molecules, 2021)
